Data reported in article PMC3306470 (ACS chemical biology, 2012).

Columns and labels:
[1] = not told; cited from earlier work
PARG [2] = settings: cited from earlier work
PARG [3] = assay: PARG in vitro assay under the original salicylanilide conditions; settings: 10 μM; phosphate buffer, 5 min; both in the absence and presence of 0.1% Triton X-100
[4] = target: endogenous PARG in whole cell lysate generated from mouse embryonic fibroblasts (MEFs) (Mus musculus, UniProt O88622); assay: Processing of 32P-PAR by MEF whole cell lysate; format: biochemical; settings: 25 μM, MEF lysate 1.5 μg
PARG [5] = assay: PARG in vitro assay; settings: for PARG inhibition: 0.5 h incubation with 32P-PAR
ß-lactamase = assay: ß-Lactamase assay

Chain of endogenous PARG in whole cell lysate generated from mouse embryonic fibroblasts (MEFs) (O88622 whole entry): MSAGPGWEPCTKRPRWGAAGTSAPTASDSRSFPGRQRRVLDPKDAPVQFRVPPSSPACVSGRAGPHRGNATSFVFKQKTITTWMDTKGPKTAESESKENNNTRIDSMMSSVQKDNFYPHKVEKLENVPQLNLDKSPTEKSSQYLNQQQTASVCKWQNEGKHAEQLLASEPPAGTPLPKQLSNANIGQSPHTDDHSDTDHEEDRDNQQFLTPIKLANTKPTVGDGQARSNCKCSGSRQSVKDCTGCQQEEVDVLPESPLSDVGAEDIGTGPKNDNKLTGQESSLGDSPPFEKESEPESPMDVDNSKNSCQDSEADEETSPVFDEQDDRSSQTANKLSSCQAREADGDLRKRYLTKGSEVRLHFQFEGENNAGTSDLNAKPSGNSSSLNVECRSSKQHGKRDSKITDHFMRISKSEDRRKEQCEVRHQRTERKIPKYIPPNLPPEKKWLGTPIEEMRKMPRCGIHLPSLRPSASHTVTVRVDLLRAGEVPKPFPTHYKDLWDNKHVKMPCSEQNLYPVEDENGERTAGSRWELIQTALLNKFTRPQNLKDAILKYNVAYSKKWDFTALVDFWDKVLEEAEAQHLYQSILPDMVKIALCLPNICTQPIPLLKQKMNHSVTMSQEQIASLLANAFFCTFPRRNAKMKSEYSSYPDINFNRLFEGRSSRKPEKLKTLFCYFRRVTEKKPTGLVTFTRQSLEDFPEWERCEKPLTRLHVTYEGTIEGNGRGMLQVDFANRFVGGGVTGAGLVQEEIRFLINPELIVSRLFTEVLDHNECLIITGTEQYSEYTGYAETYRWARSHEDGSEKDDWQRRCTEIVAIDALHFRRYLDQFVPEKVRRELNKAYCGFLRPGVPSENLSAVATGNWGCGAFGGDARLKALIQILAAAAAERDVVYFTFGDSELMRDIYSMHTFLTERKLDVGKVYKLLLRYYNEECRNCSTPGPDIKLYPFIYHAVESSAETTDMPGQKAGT

Row | intact PAR at 60 min [4] | inhibition of ß-lactamase (ß-lactamase; 50 μM, absence of detergent) [%] | inhibition of ß-lactamase in the presence of detergent (ß-lactamase; 5-50 μM, 0.1% Triton X-100) [%] | Compound | cell permeability [1] | partial inhibition of PARG (PARG [2]) | IC50 (PARG [2]; read-out: IC50 for PARG inhibition, literature value) [nM] | PARG inhibition (PARG [3]) | PARG inhibition (PARG [5]; 0.5 μM) | PARG inhibition (PARG [5]; 25 μM) [%] | PARG inhibition after prolonged incubation (PARG [5]; 0.5 – 25 μM, 2 h incubation with 32P-PAR) | effect of detergent on inhibition of PARG (PARG [5]; compound 50 μM, presence or absence of 0.1% Triton X-100, 2 h)
1 | approx. 80% |  |  | Nc1ncnc2c1ncn2[C@@H]1O[C@H](CO[P@](=O)(O)O[P@@](=O)(O)OC[C@H]2NC[C@H](O)[C@@H]2O)[C@@H](O)[C@H]1O [ADP-HPD, Adenosine diphosphate (hydroxymethyl)pyrrolidinediol] | lack of cell permeability | partial inhibition of PARG | 120 | complete inhibition | partially inhibited | 67 | only minimal PARG inhibition | 
2 |  | 100 | < 10 | Nc1c(/N=N/c2ccc(-c3ccc(/N=N/c4cc(S(=O)(=O)O)c5ccccc5c4N)cc3)cc2)cc(S(=O)(=O)O)c2ccccc12 [Congo Red] |  |  |  |  |  |  |  | complete loss of inhibition
